Source: patent US20200289482A1, “CYSTIC FIBROSIS TRANSMEMBRANE CONDUCTANCE REGULATOR MODULATORS FOR TREATING AUTOSOMAL DOMINANT POLYCYSTIC KIDNEY DISEASE” (The Johns Hopkins University, priority 2017, published 2020)

Legend:
Hsp27 = assay: Western blot of Hsp27 in kidney tissue lysates; type: in vivo, mouse; settings: cyst induced pkd−/− mice, VX-809 30 mg/kg BW
Description: FIG. 7A, FIG. 7B, FIG. 7C, FIG. 7D, FIG. 7E, and FIG. 7F show chaperone expression is altered in mice by VX-809. (FIG. 7A-FIG. 7B) Representative Western blot images of HSP27, 70, 90 and HSP40 in lysates of kidney tissue from no cyst induced (ND), cyst induced with Doxycycline (D) or cyst induced pkd−/− mice treated with VX-809 (D+VX-809) 30 mg/kg BW. (FIG. 7C, FIG. 7D, FIG. 7E, and FIG. 7F) Columns represent averages±standard errors of HSP27, 70, 90 and HSP40 expression. Data were analyzed by non-parametric t-test. n=4 for each treated and control groups. Black lines between lanes represent representative experiments from the same gel. *P<0.05; **P<0.01; To facilitate their growth in the kidney, cysts have developed an altered network of proteins that most likely serves to protect them from stress (34). Next, it was determined whether VX-809 would alter the levels of Hsps in pkd−/− mice and in PN cells. […] Hsp 27, 70 and 90 are all elevated in cystic kidneys compared to normal controls. […] There is no change in Hsp 40. […] Both sets of data are consistent with an alteration in the heat shock response to cyst growth.

NHE3 = NHE3 expression in PN cells; type: cell-based, mouse; settings: PN cells treated with VX-809 vs PN cells
Description: FIG. 14A and FIG. 14B show NHE3 expression in PN cells treated with VX-809.
The expression and activity of […] were evaluated. Specifically, NHE3 expression was evaluated in PN cells that were treated with VX-809. […] was also studied in PN, PH, and PN cells treated with VX-809. […] Next, NHE3 activity was evaluated in PN/PH cells or PN cells treated with VX-809. NHE3 activity was increased in PN cells treated with VX-809, as compared to PN cells (FIG. 16A). NHE3 activity was higher in control PH cells than in PN cells (FIG. 16B). […] NHE3 activity was increased in both VX-809 treated PN cells and control PH cells, as compared to control PN cells (FIG. 16C).

GRP78 = assay: Western blot of ER stress marker GRP78 in kidney tissue; type: in vivo, mouse; settings: cyst induced pkd−/− mice, VX-809 30 mg/kg BW
Description: FIG. 11A. FIG. 11B, FIG. 11C, FIG. 11D, and FIG. 11E show expression of ER stress markers GRP78, ErO1, and GADD in Pkd1^−/− mice treated with VX-809. (FIG. 11A & FIG. 11D) Representative Western blot images of GRP78, ErO1, and GADD in lysates of kidney tissue from no cyst induced (ND), cyst induced with doxycycline (D) or cyst induced pkd−/− mice treated with VX-809 (D+VX-809) 30 mg/kg BW. (FIG. 11B, FIG. 11C and FIG. 11E) Columns represent averages±standard errors of GRP78, ErO1, and GADD153 expression. Data were analyzed by non-parametric t-test. n=4 for each treated and control groups. Black lines between lanes represent representative experiments from the same gel but loaded in different lanes. **P<0.01, ***P<0.001;
Given that VX-809 alters an ensemble of Hsps, it was evaluated whether VX-809 alters proteins associated with ER stress. To address this question, the levels of three ER stress-associated proteins were measured, 78-kDa glucose-regulated protein (GRP78), ER oxidoreductin 1 (Ero1) and DNA damage-inducible protein 3 (GADD153), also known as C/EBP homologous protein (CHOP) (37). The results are depicted in FIG. 11 show no changes in GRP78 or Ero1 in response to VX-809.

[1] = tested on: Pkd1^fl/fl; Pax8^rtTA; TetO-cre mice; assay: Cyst growth and renal function in Pkd1 knockout mice treated with VX-809; type: in vivo, mouse
Description: (FIG. 1A) Representative images of postnatal day (PND) 21 kidney sections from DMSO- and VX-809-treated mice. Significant reductions occurred in (FIG. 1B) cyst index, (FIG. 1C) kidney weight, and (FIG. 1D) kidney-to-body weight ratio. […] Methods: The total kidney area and total cystic area were measured with ImageJ (provided by NIH). Cystic index=100× (total cystic area/total kidney area) and is expressed as a percentage. Columns represent means±standard error (SEM) for DMSO (vehicle)-treated (n=4-5) and VX-809 mice. *P<0.05; **P<0.01 (for all graphs). Statistical analysis was performed using an unpaired two-tailed Student's t-test;
When treated with doxycycline, these mice express Cre, causing knockout of PC1 (18). […] The dosage of VX-809 injected was lower than the human pediatric dose, which is 500 mg of Lumacaftor per day; the adult dose is 800 mg/day.
Mouse strain and treatment. Pkd1^fl/fl; Pax8^rtTA; TetO-cre mice on a C57BL/6 background (61) were provided by the Baltimore PKD Center. Mice of both sexes were used in this study. Mice were injected IP with doxycycline (Sigma, # D9891) ([…]) on postnatal day 11 (PND11), PND12, and PND13 to produce very rapid and aggressive cyst growth (18,19). On PND21, the mice were euthanized.

[2] = VX-809 30 mg/kg IP daily PND10 to PND20 vs DMSO-treated mice
[3] = VX-809 30 mg/kg IP daily PND10 to PND20 vs control mice

With lumacaftor [VX-809] the “Hsp27 expression in kidneys” value (Hsp27) was “significantly less expression”, the NHE3 expression (NHE3) was “significantly increased” and the GRP78 expression (GRP78) was “no changes”. The overall body weight ([1]; VX-809 30 mg/kg IP daily PND10 to PND20, treated vs untreated groups) was “no difference in overall body weight”, the “blood urea nitrogen (BUN)” value [1, 2] was “lowered blood urea nitrogen (BUN)” and the creatinine [1, 2] was “lowered”. For the same substance, the “less cyst growth (cyst index)” value ([1]; VX-809 30 mg/kg IP daily PND10 to PND20 vs DMSO, doxycycline-induced cysts, PND21) was ~60.4%, the Kidney weight [1, 3] was “lower than those of the control mice” and the kidney-to-body weight ratio [1, 3] was “lower than those of the control mice”.
